System: MDA-MB231, T47D, T47D R+ doxo, U251 and U87 cells
Experiment: Crystal violet proliferation test at 2 μM, 48 h or 72 h
Type: cell-based
Procedure: Each cell line is seeded in 96-well plates (100 μL medium/well) according to the following conditions:
After 48 h or 72 h of treatment, the medium of each well is removed then a washing is carried out with 100 μL of PBS.
The cells are then fixed with 100 μL of paraformaldehyde 4% for 20 minutes, followed by two washings with 500 μL of PBS.
The percentage of cells adhered is highlighted by a crystal violet coloration.
100 μL of crystal violet at 0.1% (1/5 dilution in H2O of the stock solution: 0.5% crystal violet 2% filtered ethanol 0.22 μM) is added in each well.
After 30 minutes of incubation at ambient temperature, the wells are rinsed 3 times with distilled water, then correctly dried by patting on a sheet of absorbent paper.
100 μL of 10% acetic acid is then added to each well.
The plate is stirred until total solubilisation of the crystal violet crystals (around 10 minutes).

## [Ru+2].c1ccc(-c2cc(-c3ccccn3)nc(-c3ccccn3)c2)cc1.c1ccc(-c2cc(-c3ccccn3)nc(-c3ccccn3)c2)cc1 [Ru]
  inhibition of the proliferation (crystal violet): does not lead to any inhibition of the proliferation

— patent publication US20220031652A1, “USE OF AN ORGANOMETALLIC COMPOUND AS A DNA-DEMETHYLATING AGENT” (UNIVERSITE DE LORRAINE, priority 2018, published 2022)
